Laboratory results taken from patent US20230090683A1, “ASPACYTARABINE PHARMACEUTICAL COMPOSITIONS AND USES THEREOF” (Biosight Ltd., priority 2020, published 2023).
Converted amounts (≈) assume the structure as drawn. Read-outs that look alike come from different tables or passages of the source.

Legend:
Type in all cases: physicochemical
[1] = Solubility of aspacytarabine in different solubilizers/stabilizers (Table 1, FIG. 1); conditions: thermodynamic from solid, read-out: Conc (solubility of aspacytarabine); for solubility at 24 h: after 24 hours, room temperature
Experimental: FIG. 1 depicts solubility (mg/ml) of aspacytarabine with (i) Tween 20, 1% (non-linear polymer); (ii) PEG 400 (neat); (iii) an aqueous solution including 1% w/w poloxamer; (iv) an aqueous solution including 2% w/w poloxamer; and (v) an aqueous solution including 1% w/w poloxamer and 5% w/w PVP, where “P188” is poloxamer 188 and “PVP” is polyvinylpyrrolidone. The solubility was measured after 24 hours in room temperature at pH 4.5.
Aspacytarabine or its hydrochloride salt was stirred with various ingredients in various conditions (separate experiment for each component/condition) in order to prepare compositions thereof. […] Among components tested were organic solvents (e.g. glycerol, ethanol, polyethylene glycol (PEG, e.g. PEG 400), dimethylacetamide and propylene glycol) and polymers (e.g. Polyoxyethylated 12-hydroxystearic acid, Polyethylene glycol, sorbitan monolaurate, polyvinylpyrrolidone (PVP), triblock copolymer of polyethylene/propylene oxide (poloxamer) and cyclodextrin and/or derivatives thereof). […] See comparative results in FIG. 1 and Table 1:
Compositions 1, 2a-2d, 3 as described in Example 2 were dissolved in an aqueous solution at room temperature. Composition 4 is aspacytarabine in neat PEG 400.

[2] = Solubility and stability of aspacytarabine free base and acid salt in aqueous media
Description: Thus, there is an unmet need for a stable and highly concentrated solutions and/or high dosage composition comprising aspacytarabine.

[3] = Solubility and stability of aspacytarabine hydrochloride salt in 3% aqueous solutions of stabilizers/solubilizers after 24 hours (Table 2)
Experimental: In another study, aspacytarabine hydrochloride salt was added to 3% aqueous solution of different stabilizers/solubilizers (See Table 2) at pH˜5.

[4] = hydrochloride salt in 3% aqueous PVP 10 kDa + PEG 300, pH~5, room temperature
[5] = hydrochloride salt in 3% aqueous Poloxamer 188 + PEG 300, pH~5, room temperature
[6] = hydrochloride salt in 3% aqueous Poloxamer 188, pH~5, room temperature
[7] = hydrochloride salt, control without stabilizers and/or solubilizer, pH~5, room temperature

Molecule N[C@@H](CC(=O)Nc1ccn([C@@H]2O[C@H](CO)[C@@H](O)[C@@H]2O)c(=O)n1)C(=O)O [aspacytarabine, (S)-2-amino-4-((1-((2R,3S,4S,5R)-3,4-dihydroxy-5-(hydroxymethyl)tetrahydrofuran-2-yl)-2-oxo-1,2-dihydropyrimidin-4-yl)amino)-4-oxobutanoic acid] has a solubility at 24 h ([1]; 1% Tween 20, aqueous with cosolvent or surfactant or cyclodextrin, solubilizer/stabilizer Tween 20 (1%, non-linear polymer), pH 4.5) of 14.3 mg/mL (≈ 40 mM), a solubility ([1]; Kolliphor ELP as solubilizer/stabilizer, aqueous with cosolvent or surfactant or cyclodextrin, solubilizer/stabilizer Kolliphor ELP) of 17.8 mg/mL (≈ 49.7 mM) and a solubility ([1]; Solutol HS15 as solubilizer/stabilizer, aqueous with cosolvent or surfactant or cyclodextrin, solubilizer/stabilizer Solutol HS15) of 16.1 mg/mL (≈ 45.1 mM). For the same molecule, the solubility at 24 h ([1]; aqueous solution with 1% w/w poloxamer 188, aqueous with cosolvent or surfactant or cyclodextrin, solubilizer/stabilizer Poloxamer 1% w/w aqueous solution, pH 4.5) was 95.3 mg/mL (≈ 266 mM), the solubility at 24 h ([1]; aqueous solution with 1% w/w poloxamer 188 and 5% w/w PVP, aqueous with cosolvent or surfactant or cyclodextrin, solubilizer/stabilizer Poloxamer 1% + 5% PVP aqueous solution, pH 4.5) was 90.9 mg/mL and the solubility at 24 h ([1]; aqueous solution with 2% w/w poloxamer 188, aqueous with cosolvent or surfactant or cyclodextrin, solubilizer/stabilizer Poloxamer 2% w/w aqueous solution, pH 4.5) was 94.9 mg/mL (≈ 265 mM). For the same molecule, the solubility at 24 h ([1]; neat PEG 400, pH 4.5, organic solvent or mixture, solubilizer/stabilizer PEG400 (neat)) was 50.5 mg/mL (≈ 141 mM), the “solubility in aqueous media” value [2] was “low solubility” and the “Concentration after 24 h” value [3, 4] was 91600 ± 8400 µg/mL. The Initial appearance [3, 4] was “Clear”, the Initial concentration [3, 4] was 87.1 ± 0.0 mg/mL and the “Appearance after 24 h” value [3, 5] was “Clear”. The “Concentration after 24 h” value [3, 5] was 80600 ± 2200 µg/mL, the Initial appearance [3, 5] was “Clear” and the Initial concentration [3, 5] was 87.3 ± 0.4 mg/mL. The “Appearance after 24 h” value [3, 6] was “Clear”, the “Concentration after 24 h” value [3, 6] was 81800 ± 3200 µg/mL and the Initial appearance [3, 6] was “Clear”. For the same molecule, the Initial concentration [3, 6] was 87.3 ± 0.2 mg/mL, the “Concentration after 24 h” value [3, 7] was 17200 ± 400 µg/mL and the Initial appearance [3, 7] was “Clear”. It also gave an Initial concentration [3, 7] of 86.6 ± 1.1 mg/mL.
